The values that follow come from patent US20170268001A1, “RNAS WITH TUMOR RADIO/CHEMO-SENSITIZING AND IMMUNOMODULATORY PROPERTIES AND METHODS OF THEIR PREPARATION AND APPLICATION” (THE UNIVERSITY OF CHICAGO, priority 2016, published 2017).

The series has as its target T1, RIG-I (Homo sapiens, UniProt O95786).
T1 construct: HEK293 cells overexpressing either the full length RIG-I; host or cells: HEK293; HCT116 also for the qRT-PCR validation
T1 sequence (O95786 1-925): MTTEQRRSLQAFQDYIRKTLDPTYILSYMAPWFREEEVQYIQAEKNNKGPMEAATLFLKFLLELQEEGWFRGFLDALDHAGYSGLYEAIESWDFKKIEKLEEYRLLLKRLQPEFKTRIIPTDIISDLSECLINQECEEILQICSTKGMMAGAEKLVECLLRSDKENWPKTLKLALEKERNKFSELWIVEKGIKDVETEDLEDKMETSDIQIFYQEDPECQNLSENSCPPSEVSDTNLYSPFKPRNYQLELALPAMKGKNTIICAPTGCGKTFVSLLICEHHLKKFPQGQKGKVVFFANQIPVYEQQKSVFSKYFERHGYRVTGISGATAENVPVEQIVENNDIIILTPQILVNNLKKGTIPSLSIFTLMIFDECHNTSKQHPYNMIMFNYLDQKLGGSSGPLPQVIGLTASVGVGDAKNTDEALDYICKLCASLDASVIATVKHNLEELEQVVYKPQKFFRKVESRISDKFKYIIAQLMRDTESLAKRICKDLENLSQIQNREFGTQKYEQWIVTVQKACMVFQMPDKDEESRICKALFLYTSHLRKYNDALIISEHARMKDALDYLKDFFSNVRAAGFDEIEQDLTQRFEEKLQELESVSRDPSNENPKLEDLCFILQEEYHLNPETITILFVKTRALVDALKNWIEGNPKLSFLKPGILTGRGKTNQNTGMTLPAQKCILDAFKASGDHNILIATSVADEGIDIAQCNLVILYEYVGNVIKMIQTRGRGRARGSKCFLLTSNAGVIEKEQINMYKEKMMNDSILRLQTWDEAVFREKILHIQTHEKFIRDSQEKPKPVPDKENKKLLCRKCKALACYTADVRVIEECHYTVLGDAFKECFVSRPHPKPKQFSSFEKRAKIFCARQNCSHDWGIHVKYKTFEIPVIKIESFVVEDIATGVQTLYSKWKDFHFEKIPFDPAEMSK
Kind of series: RNA sequencing of RNA bound to RIG-I (RIG-I pulldown) after IR. Type of series: binding. Here is the method: Technically, identification of RNAs was performed as follows: […] Cambridge, Mass.). Twenty-four hours post-transfection, cells were either mock-irradiated or exposed to IR (6 Gy). […] Cell lysates were separated from cell debris by centrifugation at 12,000 rpm at 4° C. Protein concentration was measured by BCA kit. Anti-FLAG monoclonal antibody was added to the cell lysate at a 1:500 dilution, and incubated overnight at 4° C. Protein G sepharose beads were added to the lysates and incubated for at least 2 hours at 4° C. […] Proteinase K was added to the eluates and incubated at 50° C. for 45 minutes. Trizol reagent was then added to the solution, and RNA bound to RIG-I was purified following manufacturer's protocol. RNA quality was analyzed using an Agilent Bioanalyzer 2100 with Pico Series II cartridges. RNA yield was measured using the Qubit RNA Broad Range kit. For qRT-PCR validation experiments of RIG-I pulled down RNA, UV cross-linking (2 doses at 150 mJ/cm^2) was performed on HEK293 and HCT116 overexpressing RIG-I prior to cell lysis. The same protocol for pulldown and RNA purification experiments was performed as described above. We eluted total RNA and RNA bound to RIG-I from RIG-I over-expressing HEK293 cells 48 hours post IR (6 Gy). […] Libraries were sequenced on Illumina HiSeq2500 instrument to generate 50 bp pair-ended reads. Sequencing files in FastQ format were processed using AlienTrimmer (Criscuolo A and Brisse S, 2013) to remove adapter sequences and to trim low quality reads with Phred quality score <20. The preprocessed reads were aligned to the human reference genome (Ensembl GRCh38) using Spliced Transcripts Alignment to a Reference (STAR) software (Dobin et al., 2013). The featureCounts tool from Bioconductor package RSubread was used to summarize and quantify the abundances of genomic features of the mapped reads (Liao et al., 2013). Mapped reads were annotated using human GENCODE version 20 (Harrow et al., 2012) and were summarized to 35 gene/transcript and non-coding RNA biotypes annotated in GENCODE/Ensemble databases. RepEnrich program (Criscione et al., 2014) was used to identify and quantify the repetitive elements. The program uses Bowtie (Langmead et al., 2009) to align the reads to the human reference genome (Ensembl GRCh38) and human repetitive element pseudogenomes built upon […] annotation library hg38.fa.out.gz (available at […].org on the World Wide Web). The mapped reads were summarized by repetitive element subfamilies, families and classes (Tables 3, 4 and 5). […]

The mark [1] stands for this setting: Top 50 RIG-I binding RNAs, RepeatMasker annotations, RIG-I pulldown vs total RNA, HEK293, 48 h post IR (6 Gy).

With U2: snRNA, SEQ ID NO:21, the log2FC (All mapped reads identified using RepeatMasker) was 5.983. For the same substance, the “Mean log2FC” value (RepeatMasker annotations, mean of set 1 and set 2) stood at 3.948. Also, under setting [1], the “log2FC (set 1)” value is given as 5.983 and the “log2FC (set 2)” value stood at 1.914.
